From US9656968B2, “Pyrimidines as sodium channel blockers” (PURDUE PHARMA L.P, priority 2011, dated 2017)
Where two headings read alike, the source gives them in different places.

Assays:
human Nav1.7 = human Nav1.7 (Homo sapiens (Human), UniProt Q15858); test: FLIPR sodium dye assay for sodium channel blocking activity (recombinant Nav1.7/HEK293 cells); assay type: cell-based
[1] = test system: SNL-induced mechanical hyperalgesia; test: SNL-induced mechanical hyperalgesia model (paw pressure test, PWT); assay type: in vivo, rat; settings: dosed orally at 100 mg/kg, vehicle 0.5% methyl cellulose, one hour before testing
Experimental: In the Chung model, the spinal nerve ligation (SNL) model of neuropathic pain is used to produce mechanical hyperalgesia, thermal hyperalgesia, and tactile allodynia in rats. Surgery is performed under isoflurane/O2 inhalation anesthesia. Following induction of anesthesia a 3 cm incision is made and the left paraspinal muscles are separated from the spinous process at the L4-S2 levels. The L6 transverse process is carefully removed with a pair of small rongeurs to identify visually the L4-L6 spinal nerves. The left L5 (or L5 and L6) spinal nerve(s) is (are) isolated and tightly ligated with silk thread. […] The animals can also be assessed for response to noxious thermal stimuli or for tactile allodynia, as described below. […] Sensitivity to noxious mechanical stimuli was measured in animals using the paw pressure test to assess mechanical hyperalgesia. In rats, hind paw withdrawal thresholds (“PWT”), measured in grams, in response to a noxious mechanical stimulus were determined using an analgesymeter (Model 7200, commercially available from Ugo Basile of Italy), as described in Stein (Biochemistry & Behavior 31: 451-455 (1988)). […] PWT was determined once for each rat at each time point. PWT can be measured only in the injured paw, or in both the injured and non-injured paw. […]

[2] = recombinant human Nav1.7 in HEK293

human Nav1.7, sequence (Q15858 other isoform, or with tags, fused parts or gaps): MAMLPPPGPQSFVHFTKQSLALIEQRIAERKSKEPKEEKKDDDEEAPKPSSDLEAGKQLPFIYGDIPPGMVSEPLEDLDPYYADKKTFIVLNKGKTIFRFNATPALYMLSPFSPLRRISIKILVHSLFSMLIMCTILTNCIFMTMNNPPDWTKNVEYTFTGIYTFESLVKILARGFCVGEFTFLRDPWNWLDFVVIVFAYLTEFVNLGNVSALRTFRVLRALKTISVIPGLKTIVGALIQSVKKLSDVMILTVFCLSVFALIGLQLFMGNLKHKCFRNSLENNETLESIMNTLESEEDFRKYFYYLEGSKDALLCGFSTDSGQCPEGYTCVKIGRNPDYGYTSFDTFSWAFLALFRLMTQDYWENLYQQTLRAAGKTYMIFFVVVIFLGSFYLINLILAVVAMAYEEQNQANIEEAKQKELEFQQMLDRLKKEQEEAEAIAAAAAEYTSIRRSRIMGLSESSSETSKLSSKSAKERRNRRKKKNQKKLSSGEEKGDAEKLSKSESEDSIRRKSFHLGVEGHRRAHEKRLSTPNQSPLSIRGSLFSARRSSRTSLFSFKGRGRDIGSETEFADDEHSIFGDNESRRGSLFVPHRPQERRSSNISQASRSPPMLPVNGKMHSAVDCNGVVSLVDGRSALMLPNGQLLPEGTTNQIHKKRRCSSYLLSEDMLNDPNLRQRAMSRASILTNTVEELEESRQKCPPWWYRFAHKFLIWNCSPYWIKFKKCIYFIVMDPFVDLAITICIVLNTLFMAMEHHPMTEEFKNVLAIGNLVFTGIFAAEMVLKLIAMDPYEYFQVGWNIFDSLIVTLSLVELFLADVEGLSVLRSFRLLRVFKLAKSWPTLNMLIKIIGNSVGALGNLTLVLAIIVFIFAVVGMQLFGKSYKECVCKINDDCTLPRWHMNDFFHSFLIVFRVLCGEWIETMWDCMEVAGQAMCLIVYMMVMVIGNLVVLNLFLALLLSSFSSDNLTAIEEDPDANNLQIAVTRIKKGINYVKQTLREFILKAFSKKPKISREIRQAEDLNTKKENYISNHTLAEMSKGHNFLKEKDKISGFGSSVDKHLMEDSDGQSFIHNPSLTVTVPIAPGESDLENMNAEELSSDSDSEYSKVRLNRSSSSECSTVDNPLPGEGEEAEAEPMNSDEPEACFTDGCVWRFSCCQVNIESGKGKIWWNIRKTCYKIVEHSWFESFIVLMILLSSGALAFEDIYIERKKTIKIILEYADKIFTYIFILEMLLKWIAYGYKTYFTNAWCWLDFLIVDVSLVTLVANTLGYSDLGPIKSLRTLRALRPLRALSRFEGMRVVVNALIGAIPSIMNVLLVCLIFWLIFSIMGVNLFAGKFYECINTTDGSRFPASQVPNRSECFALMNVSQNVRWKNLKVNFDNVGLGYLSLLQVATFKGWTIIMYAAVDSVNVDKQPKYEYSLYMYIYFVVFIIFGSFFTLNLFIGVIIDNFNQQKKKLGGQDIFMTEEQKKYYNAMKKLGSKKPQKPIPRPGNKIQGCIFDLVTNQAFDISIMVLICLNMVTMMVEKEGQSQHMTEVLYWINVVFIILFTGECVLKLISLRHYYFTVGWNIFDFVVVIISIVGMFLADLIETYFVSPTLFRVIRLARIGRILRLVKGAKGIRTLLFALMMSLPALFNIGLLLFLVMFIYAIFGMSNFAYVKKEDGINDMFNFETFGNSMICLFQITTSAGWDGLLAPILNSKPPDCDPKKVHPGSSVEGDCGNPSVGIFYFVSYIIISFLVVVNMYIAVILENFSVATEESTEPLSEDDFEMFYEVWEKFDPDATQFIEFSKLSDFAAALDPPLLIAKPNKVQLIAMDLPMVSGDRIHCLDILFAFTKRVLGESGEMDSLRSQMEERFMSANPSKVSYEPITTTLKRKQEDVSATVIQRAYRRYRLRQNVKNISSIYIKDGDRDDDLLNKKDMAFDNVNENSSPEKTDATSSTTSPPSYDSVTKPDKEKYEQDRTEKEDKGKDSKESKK

| Structure (SMILES) | IC50 (human Nav1.7; [2]) | SNL-induced mechanical hyperalgesia in rats [1] | other results |
| --- | --- | --- | --- |
| C[C@H](Nc1cc(C(N)=O)nc(-c2ccc(Oc3cc(C(F)(F)F)ccn3)cc2)n1)C(N)=O [compound 57] | 3.25 µM |  |  |
| C[C@H](Oc1cc(C(N)=O)nc(-c2ccc(Oc3cc(Cl)ccc3F)cc2)n1)C(N)=O [Cpd No. 92] | 0.27 µM |  |  |
| C[C@H](Nc1cc(C(N)=O)nc(-c2ccc(Oc3ccc(OC(F)(F)F)cc3)cc2)n1)C(N)=O [compound 84, (S)-6-((1-amino-1-oxopropan-2-yl)amino)-2-(4-(4-(trifluoromethoxy)phenoxy)phenyl)pyrimidine-4-carboxamide] |  | reduced SNL-induced mechanical hyperalgesia |  |
| NC(=O)c1cc(N[C@H]2CCNC2=O)nc(-c2ccc(Oc3ccc(C(F)(F)F)cn3)cc2)n1 [compound 99, (S)-6-((2-oxopyrrolidin-3-yl)amino)-2-(4-((5-(trifluoromethyl)pyridin-2-yl)oxy)phenyl)pyrimidine-4-carboxamide] |  | reduced SNL-induced mechanical hyperalgesia |  |
| C[C@H](Nc1cc(C(N)=O)nc(-c2ccc(Oc3ccc(F)cc3)c(CO)c2)n1)C(N)=O [compound 97, (S)-6-((1-amino-1-oxopropan-2-yl)amino)-2-(4-(4-fluorophenoxy)-3-(hydroxymethyl)phenyl)pyrimidine-4-carboxamide] |  |  | IC50 (human Nav1.7): 5.72 µM |
| C[C@H](Oc1cc(C(N)=O)nc(-c2ccc(Oc3ccc(Cl)cc3F)cc2)n1)C(N)=O [Cpd No. 93] | 0.083 µM |  |  |
